From PubChem BioAssay AID248 (DTP/NCI, 2004)
Values joined by “and” are separate entries in the source; they are usually repeats but may differ in a detail not shown here. Equal entries are not always repeated. Inconclusive results and toxic doses are left out. Cut-off read from the data, not from the text of the source: active = T/C of 150% or more; inactive = T/C below 125%.

System: L1210 leukemia ip in BDF1 mice, survival T/C
Test: NCI In Vivo Anticancer Drug Screen. Data for tumor model L1210 Leukemia (intraperitoneal) in B6D2F1 (BDF1) mice
Conditions: endpoint: mean survival time, higher = longer survival
Summary of the method: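 Survival endpoint. Drug-treated group vs vehicle group, expressed as T divided by C. Tumor passaged by transplantation.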

[1] = dose: 100.0 mg/kg/injection, schedule: Q01DX001 (ip), vehicle: saline with Tween-80
[2] = dose: 100.0 mg/kg/injection, schedule: Q04DX002 (ip), vehicle: saline with Tween-80
[3] = dose: 100.0 mg/kg/injection, schedule: Q04DX003 (ip), vehicle: saline with Tween-80
[4] = dose: 200.0 mg/kg/injection, schedule: Q01DX001 (ip), vehicle: saline with Tween-80
[5] = dose: 200.0 mg/kg/injection, schedule: Q04DX002 (ip), vehicle: saline with Tween-80
[6] = dose: 400.0 mg/kg/injection, schedule: Q04DX002 (ip), vehicle: saline with Tween-80
[7] = dose: 200.0 mg/kg/injection, schedule: Q04DX003 (ip), vehicle: saline with Tween-80
[8] = dose: 400.0 mg/kg/injection, schedule: Q04DX003 (ip), vehicle: saline with Tween-80
[9] = dose: 300.0 mg/kg/injection, schedule: Q04DX003 (ip), vehicle: Klucel (hydroxypropylcellulose) (HPC)
[10] = dose: 100.0 mg/kg/injection, schedule: Q01DX001 (ip), vehicle: Klucel (hydroxypropylcellulose) (HPC)
[11] = dose: 200.0 mg/kg/injection, schedule: Q01DX001 (ip), vehicle: Klucel (hydroxypropylcellulose) (HPC)
[12] = dose: 400.0 mg/kg/injection, schedule: Q01DX001 (ip), vehicle: Klucel (hydroxypropylcellulose) (HPC)
[13] = dose: 100.0 mg/kg/injection, schedule: Q04DX003 (ip), vehicle: Klucel (hydroxypropylcellulose) (HPC)
[14] = dose: 200.0 mg/kg/injection, schedule: Q04DX003 (ip), vehicle: Klucel (hydroxypropylcellulose) (HPC)
[15] = dose: 100.0 mg/kg/injection, schedule: Q01DX009 (ip), vehicle: Klucel (hydroxypropylcellulose) (HPC)
[16] = dose: 200.0 mg/kg/injection, schedule: Q01DX009 (ip), vehicle: Klucel (hydroxypropylcellulose) (HPC)
[17] = dose: 400.0 mg/kg/injection, schedule: Q01DX009 (ip), vehicle: Klucel (hydroxypropylcellulose) (HPC)

Measured: T/C

CN(C)c1ccc(/C=N/NC(=O)CCCCCCCCC(=O)N/N=C/c2ccc(N(C)C)cc2)cc1
inactive: dose: 12.5 mg/kg/injection, schedule: Q01DX009 (ip), vehicle: saline with Tween-80 101 % of control and 104 % of control | dose: 25.0 mg/kg/injection, schedule: Q01DX009 (ip), vehicle: saline with Tween-80 94 % of control and 97 % of control | dose: 50.0 mg/kg/injection, schedule: Q04DX003 (ip), vehicle: saline with Tween-80 98 % of control | [1] 100 % of control | [2] 101 % of control and 104 % of control | [3] 93 % of control | [4] 100 % of control | [5] 101 % of control and 102 % of control | [6] 108 % of control

O=c1[nH]nnc2c1ncn2C1OC(CO)C(O)C1O (configuration not stated)
inactive: dose: 100.0 mg/kg/injection, schedule: Q01DX005 (ip), vehicle: saline 102 % of control | dose: 200.0 mg/kg/injection, schedule: Q01DX005 (ip), vehicle: saline 102 % of control

CC(C)CC(NC(=O)CNC(=O)OCc1ccccc1)C(=O)O (configuration not stated)
inactive: [3] 101 % of control | [7] 97 % of control | [8] 91 % of control

CCOP(=O)(/C(C#N)=C/c1ccccc1)c1ccccc1 (configuration not stated)
inactive: dose: 50.0 mg/kg/injection, schedule: Q01DX009 (ip), vehicle: Klucel (hydroxypropylcellulose) (HPC) 95 % of control | dose: 75.0 mg/kg/injection, schedule: Q01DX009 (ip), vehicle: Klucel (hydroxypropylcellulose) (HPC) 96 % of control | dose: 75.0 mg/kg/injection, schedule: Q04DX003 (ip), vehicle: Klucel (hydroxypropylcellulose) (HPC) 101 % of control | dose: 150.0 mg/kg/injection, schedule: Q01DX009 (ip), vehicle: Klucel (hydroxypropylcellulose) (HPC) 93 % of control | dose: 150.0 mg/kg/injection, schedule: Q04DX003 (ip), vehicle: Klucel (hydroxypropylcellulose) (HPC) 98 % of control | [9] 91 % of control

Nc1ccnc(=S)[nH]1
inactive: [10] 92 % of control | [11] 97 % of control | dose: 250.0 mg/kg/injection, schedule: Q01DX Z (ip), vehicle: methylcellulose (MC) 101 % of control | [12] 94 % of control

Nc1cc2ccccc2c2c1ccc1ccccc12
inactive: dose: 87.5 mg/kg/injection, schedule: Q04DX003 (ip), vehicle: Klucel (hydroxypropylcellulose) (HPC) 91 % of control | [13] 97 % of control | dose: 175.0 mg/kg/injection, schedule: Q04DX003 (ip), vehicle: Klucel (hydroxypropylcellulose) (HPC) 93 % of control | [14] 94 % of control | dose: 350.0 mg/kg/injection, schedule: Q04DX003 (ip), vehicle: Klucel (hydroxypropylcellulose) (HPC) 102 % of control

Cc1cc([N+](=O)[O-])ccc1NC(=O)Nc1cccc(C(F)(F)F)c1
inactive: [15] 88 % of control | [16] 92 % of control | [17] 90 % of control

COC(=O)[C@H]1[C@H]2C[C@@H]3c4[nH]c5ccccc5c4CCN3C[C@H]2C[C@@H](OC(=O)c2cc(OC)c(OC)c(OC)c2)[C@@H]1OC
inactive: dose: 0.23 mg/kg/injection, schedule: Q01DX009 (ip), vehicle: Klucel (hydroxypropylcellulose) (HPC) 93 % of control | dose: 0.23 mg/kg/injection, schedule: Q04DX003 (ip), vehicle: saline 95 % of control | dose: 0.46 mg/kg/injection, schedule: Q01DX009 (ip), vehicle: Klucel (hydroxypropylcellulose) (HPC) 90 % of control | dose: 0.46 mg/kg/injection, schedule: Q04DX003 (ip), vehicle: saline 104 % of control | dose: 0.93 mg/kg/injection, schedule: Q01DX009 (ip), vehicle: Klucel (hydroxypropylcellulose) (HPC) 101 % of control | dose: 0.93 mg/kg/injection, schedule: Q04DX003 (ip), vehicle: saline 112 % of control | dose: 1.87 mg/kg/injection, schedule: Q01DX009 (ip), vehicle: Klucel (hydroxypropylcellulose) (HPC) 88 % of control | dose: 1.87 mg/kg/injection, schedule: Q04DX003 (ip), vehicle: saline 98 % of control | dose: 3.75 mg/kg/injection, schedule: Q04DX003 (ip), vehicle: saline 101 % of control

Nc1ccc(N)c2c1C(=O)c1cccc([N+](=O)[O-])c1C2=O
inactive: dose: 50.0 mg/kg/injection, schedule: Q01DX001 (ip), vehicle: carboxymethylcellulose (CMC) 101 % of control | dose: 100.0 mg/kg/injection, schedule: Q01DX001 (ip), vehicle: carboxymethylcellulose (CMC) 97 % of control | dose: 200.0 mg/kg/injection, schedule: Q01DX001 (ip), vehicle: carboxymethylcellulose (CMC) 95 % of control | dose: 400.0 mg/kg/injection, schedule: Q01DX001 (ip), vehicle: carboxymethylcellulose (CMC) 95 % of control

CN(C)c1ccc(NC(=O)NCCCl)cc1
inactive: [13] 106 % of control | [14] 103 % of control

COC1CCC(/C(C#N)=C/C2CCC(N(C)C)CC2)CC1 (configuration not stated)
inactive: [2] 95 % of control | [5] 91 % of control | [6] 98 % of control

Cc1ccc(-c2cc(-c3ccccc3)no2)cc1
inactive: [15] 97 % of control | [13] 102 % of control | [16] 95 % of control | [14] 102 % of control | [17] 95 % of control | dose: 400.0 mg/kg/injection, schedule: Q04DX003 (ip), vehicle: Klucel (hydroxypropylcellulose) (HPC) 93 % of control

CN(NC(=O)c1ccccc1)C(=O)c1ccccc1
inactive: dose: 12.5 mg/kg/injection, schedule: Q04DX003 (ip), vehicle: Klucel (hydroxypropylcellulose) (HPC) 106 % of control | dose: 25.0 mg/kg/injection, schedule: Q04DX003 (ip), vehicle: Klucel (hydroxypropylcellulose) (HPC) 104 % of control | dose: 50.0 mg/kg/injection, schedule: Q04DX003 (ip), vehicle: Klucel (hydroxypropylcellulose) (HPC) 103 % of control | [13] 108 % of control | dose: 130.0 mg/kg/injection, schedule: Q04DX003 (ip), vehicle: Klucel (hydroxypropylcellulose) (HPC) 100 % of control | [14] 103 % of control | [9] 113 % of control

Cc1cc(=O)c2cc(N(C)C)ccc2[nH]1
inactive: dose: 100.0 mg/kg/injection, schedule: Q01DX009 (ip), vehicle: water 100 % of control | dose: 100.0 mg/kg/injection, schedule: Q04DX003 (ip), vehicle: water 115 % of control | dose: 200.0 mg/kg/injection, schedule: Q01DX009 (ip), vehicle: water 105 % of control | dose: 200.0 mg/kg/injection, schedule: Q04DX003 (ip), vehicle: water 116 % of control | dose: 400.0 mg/kg/injection, schedule: Q01DX009 (ip), vehicle: water 104 % of control | dose: 400.0 mg/kg/injection, schedule: Q04DX003 (ip), vehicle: water 116 % of control

CCN(C=O)c1ccc(NC=O)cc1
inactive: dose: 50.0 mg/kg/injection, schedule: Q01DX001 (ip), vehicle: saline with Tween-80 104 % of control | [1] 94 % of control and 100 % of control | [2] 103 % of control | [3] 97 % of control | [4] 94 % of control and 91 % of control | [5] 97 % of control | [7] 95 % of control and 91 % of control | dose: 400.0 mg/kg/injection, schedule: Q01DX001 (ip), vehicle: saline with Tween-80 94 % of control | [6] 101 % of control | [8] 103 % of control and 108 % of control

O=C(COc1ccc(Cl)c(Cl)c1)NCc1ccncc1
inactive: [10] 93 % of control | [11] 102 % of control | [12] 102 % of control
